The record followed here is patent publication US20060093561A1, “Method of treating microorganisms in the oral cavity” (priority 2004, published 2006).

Series [1] deals with P. gingivalis. Put plainly: Photodynamic therapy assay, bacteria suspended in PBS. The format is cell-based, Porphyromonas gingivalis 381. The following applies: for killing of P. gingivalis: light dose 2.2 J/cm^2, 50 μg/ml TBO, 5 min incubation. From the text: (§1) The following bacteria were used in these experiments and cultivated in an anaerobic chamber (available commercially from Coy Manufacturing Co.; AnnArbor, Mich., USA): Porphyromonas gingivalis 381; Prevotella intermedia 25611; Actinobacillus actinomycetemcomitans UT32; Fusobacterium nucleatum 1213; Bacteroides forsythus 43037. P. gingivalis and P. intermedia strains were subcultured weekly in Todd Hewitt Broth (available commercially from Fisher Scientific; Nepean, Ontario, Canada; hereinafter referred to as Fisher) supplemented with 5 μg/ml hemin (Sigma-Aldrich Co.; Oakville, Ontario, Canada; hereinafter referred to as Sigma) and 1 μg/ml menadione (Sigma). A. actinomycetemcomitans was subcultured in Tryptic Soy Broth (Fisher) containing 6 g/l yeast extract (Fisher) and 8 ml of 1.5% sodium bicarbonate, filter sterilized (Fisher). F. nucleatum was subcultured in Todd Hewitt Broth. B. forsythus was subcultured in Brain Heart Infusion Broth (95 ml) (Fisher) supplemented with 0.001 g N-acetylmuramic acid (Sigma) in 5 ml Horse Serum (Cedarlane Laboratories; Hornby, Ontario, Canada), filter sterilized. Prior to experiments, a fresh broth tube was inoculated and allowed to grow overnight at 37° C. in the anaerobic chamber.
A 100 Watt red-filtered xenon fibre optic light source having a bandwidth of 620-640 nm (available commercially from EXFO, Inc.; Mississauga, Ontario, Canada) was used in these experiments. […] Light dose for each source was calculated by the cross product of the TBO absorption spectrum and light spectrum.
(§2) The photosensitizer TBO (Sigma) was dissolved in Dulbecco's Phosphate Buffered Saline (PBS) (Sigma) to a concentration of 1 mg/ml under ambient light. […] The stock was diluted to appropriate concentrations with PBS as required.
(§3) An overnight bacterial culture was removed from the anaerobic chamber and centrifuged at 2400×g for 5 minutes in an IEC21000R centrifuge (Fisher). The supernatant was discarded and the pellet washed and resuspended three times in PBS. The bacterial suspension was then adjusted to a working concentration of approximately 10^10 colony forming units (cfu)/ml by measurement of optical density at 600 nm (Pharmacia LKB Ultraspec III). The suspension was returned to the anaerobic chamber and aliquoted in pre-reduced 1.5 ml microfuge tubes (Fisher) in order to decrease oxygen exposure of the anaerobic suspension.
Prior to light irradiation, 75 μl of calibrated bacterial suspension (7.5×10^8 cfu) was mixed with 75 μl of TBO stock solution (100 μg/ml) in a sterile tube, for a final mixture concentration of 5×10^9 cfu/ml and 50 μg/ml TBO. The mixture was then incubated at room temperature for 5 min. in the dark. TBO negative controls were incubated with an equal volume of sterile PBS instead of TBO. The mixture was then added to a sterilized perfusion chamber (Cedarlane Laboratories) mounted on a glass coverslip. The perfusion chamber was 500 μm thick, and so attenuation of the treatment light by the TBO was only 30% at 50 μg/ml. For most treatments at a concentration of 12.5 μg/ml TBO, the attenuation of treatment light was only 9%. The inoculated perfusion chamber was irradiated under the desired conditions with a light beam whose diameter covered the perfusion chamber's transparent surface. Upon completion, the mixture was removed and serially diluted in PBS and each dilution was plated on the following media: for P. gingivalis, P. intermedia, and F. nucleatum, Trypticase Soy Agar (Fisher) supplemented with 5 g/l yeast extract, 5 μg/ml hemin, 1 μg/ml menadione, 50 ml/l defibrinated sheep's blood (Oxoid, Inc.; Nepean, Ontario, Canada); for B. forsythus, Trypticase Soy Agar supplemented with 4 g/L yeast extract, 4 g/L trypticase peptone (Fisher), N-acetymuramic acid (10 mg/ml stock filter sterilized into medium to 10 mg/l); and for A. actinomycetemcomitans, Tryptic Soy Agar. […]

Series [2] has as its system P. gingivalis. Briefly: Photodynamic therapy assay, serum and blood bacteria suspensions. The series is classed as cell-based, Porphyromonas gingivalis 381. As to the method: as §3
(§4) Prior to light irradiation, 75 μl of calibrated bacterial suspension (7.5×10^8 cfu) was mixed with 75 μl of TBO stock solution (100 μg/ml) in a sterile tube, for a final mixture concentration of 5×10^9 cfu/ml and 50 μg/ml TBO. The mixture was then incubated at room temperature for 5 min. in the dark. TBO negative controls were incubated with an equal volume of sterile PBS instead of TBO. The mixture was then added to a sterilized perfusion chamber (Cedarlane Laboratories) mounted on a glass coverslip. The perfusion chamber was 500 μm thick, and so attenuation of the treatment light by the TBO was only 30% at 50 μg/ml. For most treatments at a concentration of 12.5 μg/ml TBO, the attenuation of treatment light was only 9%. The inoculated perfusion chamber was irradiated under the desired conditions with a light beam whose diameter covered the perfusion chamber's transparent surface. […] Colony counts determined the number of bacterial survivors and they were expressed as cfu/ml. […]

Series [3] relates to P. gingivalis. Briefly: Photodynamic therapy assay after serum washout of bacteria. The format is cell-based, Porphyromonas gingivalis 381. As to the method: as §3
as §4, with “μg/ml.” for “μg/ml. For most treatments at a concentration of 12.5 μg/ml TBO, the attenuation of treatment light was only 9%. The inoculated perfusion chamber was irradiated under the desired conditions with a light beam whose diameter covered the perfusion chamber's transparent surface.”

In another series the test system is P. intermedia. The description is as above. The format is cell-based, Prevotella intermedia 25611. To be noted: xenon lamp 10 J/cm^2, 100 mW/cm^2, 12.5 μg/ml TBO.
From the text: as §1, with “B. forsythus was subcultured in Brain Heart Infusion Broth (95 ml) (Fisher) supplemented with 0.001 g N-acetylmuramic acid (Sigma) in 5 ml Horse Serum (Cedarlane Laboratories; Hornby, Ontario, Canada), filter sterilized. Prior to experiments, a fresh broth tube was inoculated and allowed to grow overnight at 37° C. in the anaerobic chamber.” left out
(§5) Prior to light irradiation, 75 μl of calibrated bacterial suspension (7.5×10^8 cfu) was mixed with 75 μl of TBO stock solution (100 μg/ml) in a sterile tube, for a final mixture concentration of 5×10^9 cfu/ml and 50 μg/ml TBO. […] Colony counts determined the number of bacterial survivors and they were expressed as cfu/ml. […]

A further series concerns F. nucleatum. The description is as above. To be noted: xenon lamp 10 J/cm^2, 100 mW/cm^2, 12.5 μg/ml TBO. The series is classed as cell-based, Fusobacterium nucleatum 1213.
From the text: as §1, with “B. forsythus was subcultured in Brain Heart Infusion Broth (95 ml) (Fisher) supplemented with 0.001 g N-acetylmuramic acid (Sigma) in 5 ml Horse Serum (Cedarlane Laboratories; Hornby, Ontario, Canada), filter sterilized. Prior to experiments, a fresh broth tube was inoculated and allowed to grow overnight at 37° C. in the anaerobic chamber.” left out
as §5

Another series relates to A. actinomycetemcomitans. The description is as above. The format is cell-based, Actinobacillus actinomycetemcomitans UT32. The following applies: xenon lamp 10 J/cm^2, 100 mW/cm^2, 12.5 μg/ml TBO.
From the text: as §1, with “B. forsythus was subcultured in Brain Heart Infusion Broth (95 ml) (Fisher) supplemented with 0.001 g N-acetylmuramic acid (Sigma) in 5 ml Horse Serum (Cedarlane Laboratories; Hornby, Ontario, Canada), filter sterilized. Prior to experiments, a fresh broth tube was inoculated and allowed to grow overnight at 37° C. in the anaerobic chamber.” left out
as §5

The subject of another series is B. forsythus. Described as above. The format is cell-based, Bacteroides forsythus 43037. To be noted: xenon lamp 10 J/cm^2, 100 mW/cm^2, 12.5 μg/ml TBO.
From the text: as §1, with “B. forsythus was subcultured in Brain Heart Infusion Broth (95 ml) (Fisher) supplemented with 0.001 g N-acetylmuramic acid (Sigma) in 5 ml Horse Serum (Cedarlane Laboratories; Hornby, Ontario, Canada), filter sterilized. Prior to experiments, a fresh broth tube was inoculated and allowed to grow overnight at 37° C. in the anaerobic chamber.” left out
as §5

The nature of series [4]: Storage stability of TBO stock solution. The series is classed as physicochemical. To be noted: 1 mg/ml in PBS, filter sterilized, dark tubes at −20° C., up to 3 months. As to the method:
as §2

[5] abbreviates: xenon lamp 6.3 J/cm^2, 100 mW/cm^2, 12.5 μg/ml TBO.

Regarding `Cc1cc2nc3ccc(N(C)C)cc3[s+]c2cc1N` [TBO, toluidine blue O], the “increase in bacterial killing, xenon lamp versus He—Ne laser” value in the series on P. gingivalis [1] (2.2 J/cm^2, 50 μg/ml TBO) is given as roughly 10 fold. Besides, the “reduction in viable bacteria” value in the series on P. gingivalis [1] (He—Ne laser, 2.2 J/cm^2, 50 μg/ml TBO) is on record as “approximately 270 ×”. Also, the “killing of P. gingivalis” value in the series on P. gingivalis [1] (He—Ne laser) came to 2.43±0.39 logs; in the series with P. gingivalis [1] (red-filtered xenon lamp), 3.34±0.24 logs. Besides, the “P. gingivalis kill in the absence of serum” value with P. gingivalis [1] (setting [5]) is 6.02±0.76 logs. For the same compound, the “kill of P. gingivalis at each TBO concentration tested” value in the series with P. gingivalis [1] (xenon lamp 6.3 J/cm^2 and 100 mW/cm^2, each drug concentration incl. 3.125, 6.25 and 12.5 μg/ml) is recorded as 5 logs. In addition, the “kill of P. gingivalis” value with P. gingivalis [1] (xenon lamp 10 mW/cm^2, total light dose 2.2 J/cm^2, 50 μg/ml TBO) was 2.12±0.36 logs; in the series with P. gingivalis [1] (xenon lamp 25 mW/cm^2, total light dose 2.2 J/cm^2, 50 μg/ml TBO), 3.34±0.41 logs; with P. gingivalis [1] (xenon lamp 100 mW/cm^2, total light dose 2.2 J/cm^2, 50 μg/ml TBO), 3.41±0.58 logs. Besides, the “bacterial kill of P. gingivalis” value in the series on P. gingivalis [1] (xenon lamp 100 mW/cm^2, light dose 6.3 J/cm^2, 50 μg/ml TBO) was 5 logs. The “P. gingivalis killing with serum” value with P. gingivalis [2] (FBS 50% (v/v), xenon lamp 6.3 J/cm^2, 100 mW/cm^2, 12.5 μg/ml TBO) was determined as 3.05±1.02 logs. In the series on P. gingivalis [2] (defibrinated sheep's blood, xenon lamp 20 J/cm^2, 100 mW/cm^2, 12.5 μg/ml TBO), the “maximum blood resuspended P. gingivalis kill” value is on record as 2.85±0.33 logs. In the series with P. gingivalis [2] (defibrinated sheep's blood, xenon lamp 100 mW/cm^2, 12.5 μg/ml TBO, light doses above 10 J/cm^2), the “kill of blood suspended P. gingivalis compared to TBO absent controls at higher light doses” value is recorded as roughly 3 log. The “P. gingivalis killing after serum washout” value in the series on P. gingivalis [3] (setting [5]) came out at 4.71±1.07 logs. For the same compound, the “P. gingivalis kill after serum washout” value in the series with P. gingivalis [3] (xenon lamp 10 J/cm^2, 100 mW/cm^2, 12.5 μg/ml TBO) turned out to be 5.48±0.68 logs. The same compound registered a P. intermedia kill in the series on P. intermedia of 5.33±0.62 logs. For the same compound, the F. nucleatum kill in the series with F. nucleatum was 4.7±0.72 logs. Besides, the A. actinomycetemcomitans kill in the series with A. actinomycetemcomitans was 5.51±1.34 logs. This compound came in with a B. forsythus killing in the series with B. forsythus of 3.92±0.68 logs. In addition, in series [4], the “storage stability of stock solution” value is “without a loss in potency”.
